Assay results as given in the NIST ThermoML archive (doi:10.1021/acs.jced.9b00396).
± gives the expanded uncertainty stated by the source.

Assay: refractive index (Na D-line) (dimensionless)
Conditions: 298.15 K; 100 kPa; Liquid; Standard Abbe refractometry

Row | refractive index | Structure (SMILES)
1 | 1.39852 ± 0.00037 | CC(=O)OCCC(C)C [3-methylbutyl ethanoate]
2 | 1.53876 ± 0.00037 | OCc1ccccc1 [benzenemethanol]
3 | 1.47713 ± 0.00033 | C[S+](C)[O-] [dimethyl sulfoxide]
